Target: Horse Cytochrome c (Equus caballus, UniProt P00004)
Test: Micro calorimetry titration of Cytochrome c
Type: binding
Settings: micro calorimetry titration (FIG. 9); read-out: association constant (converted)
From the text: FIG. 9 illustrates a micro calorimetry titration of Cytochrome c with a preferred embodiment of the present invention.
Horse Cytochrome c is an electron-transferring protein with a heme prosthetic group. The size of this protein is 12,384 Dalton and the surface is highly positively charged with lysine and arginine residues. For the X-ray crystal structure of Cytochrome c, see: Bushnell, G. W.; Louie, G. D.; Brayer, G. D. J. Mol. Biol. 1990, 214, 585. NMR titration of Cytochrome c with a preferred embodiment of the invention, designated 1 below, was performed under the condition described in FIG. 8 and two of the hyperfine region protons from heme in Cytochrome c, heme 8-CH3 and heme 3-CH3, were followed. […] The direction and the size of shifts are about the same as those of the titration between Cytochrome c and Cytochrome c peroxydase and peak broadening was also observed in the peroxydase titration. For NMR titration of cytochrome c and cytochrome-c peroxydase, see: Satterlee, J. D.; Moench, S. J.; Erman, J. E. Biochemica et Boiphysica Acta 1987, 912, 87-97. FIG. 8 is consistent with 1:1 binding. [drawing 1] Micro calorimetry titration of Cytochrome c with 1 was also performed (see FIG. 9). The association constant was calculated as 136000M^-1 therefore ΔG=-7.0 kcal/mol. As the enthalpy of the binding event is simulated as -5.6 kcal/mol, the entropy portion should be -1.4 kcal/mol. […]

Sequence of Horse Cytochrome c (P00004 whole entry): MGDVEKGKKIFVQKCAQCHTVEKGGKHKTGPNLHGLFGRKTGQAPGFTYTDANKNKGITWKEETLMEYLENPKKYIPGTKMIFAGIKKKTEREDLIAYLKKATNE

Question: Which Kd does the source give for CCCCOc1c2cc(C(=O)Nc3cc4cc(c3)C(=O)NCC(=O)N[C@@H](CC(=O)O)C(=O)NCC(=O)N[C@@H](CC(=O)O)C(=O)NC4)cc1Cc1cc(C(=O)Nc3cc4cc(c3)C(=O)NCC(=O)N[C@@H](CC(=O)O)C(=O)NCC(=O)N[C@@H](CC(=O)O)C(=O)NC4)cc(c1OCCCC)Cc1cc(C(=O)Nc3cc4cc(c3)C(=O)NCC(=O)N[C@@H](CC(=O)O)C(=O)NCC(=O)N[C@@H](CC(=O)O)C(=O)NC4)cc(c1OCCCC)Cc1cc(C(=O)Nc3cc4cc(c3)C(=O)NCC(=O)N[C@@H](CC(=O)O)C(=O)NCC(=O)N[C@@H](CC(=O)O)C(=O)NC4)cc(c1OCCCC)C2 [compound 1, Calix[4]arenetetracyclicpeptide1] here?
Answer: 7.35 µM

From patent US5770380A (priority 1996, dated 1998)
